# In ChEMBL document CHEMBL4507292 (2021):
# How the values were obtained:
# [1] = molecular target: Glutamate NMDA receptor (Rattus norvegicus) (UniProt P35439+Q00959+Q00960+Q00961+Q62645+Q8VHN2+Q9R1M7); conditions: Compound concentration 10.0 uM
# [2] = organism: Rattus norvegicus; assay: Adrenergic α1, Non-selective Eurofins-Panlabs radioligand binding assay; format: protein assay; conditions: Compound concentration 10.0 uM
# [3] = molecular target: Somatostatin receptor type 2 (Homo sapiens) (UniProt P30874); assay: Somatostatin sst2 Eurofins-Panlabs radioligand binding assay; set-up: ligand concentration 0.1 nM; conditions: Compound concentration 10.0 uM
# [4] = molecular target: Cannabinoid receptor 1 (Homo sapiens) (UniProt P21554); assay: Cannabinoid CB1 Eurofins-Panlabs radioligand binding assay; conditions: Compound concentration 10.0 uM
# [5] = molecular target: cGMP-specific 3',5'-cyclic phosphodiesterase (Homo sapiens, UniProt O76074)
# [6] = molecular target: Melatonin receptor (Gallus gallus) (UniProt P49288+P51050+P49285); assay: Melatonin MT, Non-Selective Eurofins-Panlabs radioligand binding assay; format: protein assay; conditions: Compound concentration 10.0 uM
# [7] = molecular target: monoamine oxidase B (MAO-B) (Homo sapiens, UniProt P27338); assay: Inhibition of Monoamine Oxidase MAO-B at compound concentration of 10.0 uM in the Eurofins-Panlabs enzyme assay (Eurofins_assay_140120); set-up: substrate with concentration 50 uM Kynuramine, incubation time 60 min, incubation temperature 37 C; conditions: human recombinant MAO-B expressed in insect Hi5 cells, probe kynuramine, 50 uM, compound concentration 10 uM
# [8] = molecular target: Caspase-3 (Homo sapiens) (UniProt P42574); assay: Peptidase, CASP3 (Caspase 3) Eurofins-Panlabs enzyme assay; conditions: Compound concentration 10.0 uM
# [9] = molecular target: 5-hydroxytryptamine receptor 6 (Homo sapiens) (UniProt P50406); assay: Inhibition of Serotonin (5-Hydroxytryptamine) 5-HT6 at 10 µM in the Eurofins-Panlabs radioligand binding assay (Eurofins_assay_272200)
# [10] = molecular target: Melanocortin receptor 4 (Homo sapiens) (UniProt P32245); assay: Inhibition of Melanocortin MC4 at 10 µM in the Eurofins-Panlabs radioligand binding assay (Eurofins_assay_251350); set-up: ligand concentration 0.02 nM; conditions: Compound concentration 10.0 uM
# [11] = molecular target: Mu-type opioid receptor (Homo sapiens) (UniProt P35372); conditions: Compound concentration 10.0 uM
# [12] = molecular target: Prostaglandin E2 receptor EP3 subtype (Homo sapiens, UniProt P43115); assay: Prostanoid EP3 Eurofins-Panlabs radioligand binding assay; set-up: ligand concentration 0.5 nM, non-specific ligand with concentration 10 µM Prostaglandin EŽ2 (PGE2), incubation time 60 min, incubation temperature 25 °C
# [13] = organism: Rattus norvegicus; assay: Protein Serine/Threonine Kinase, PKC, Non-Selective Eurofins-Panlabs enzyme assay; conditions: Compound concentration 10.0 uM
# [14] = molecular target: C-C chemokine receptor type 5 (Homo sapiens) (UniProt P51681); assay: Chemokine CCR5 Eurofins-Panlabs radioligand binding assay; conditions: Compound concentration 10.0 uM
# [15] = molecular target: Synaptic vesicular amine transporter (Homo sapiens) (UniProt Q05940); conditions: Oryctolagus cuniculus
# [16] = molecular target: L-type calcium channel, benzothiazepine site (Cav1.2 alpha-1C) (Homo sapiens, UniProt Q13936); assay: Inhibition of Calcium Channel L-Type, Benzothiazepine at 10 µM in the Eurofins-Panlabs radioligand binding assay (Eurofins_assay_214510); set-up: ligand concentration 2 nM, non-specific ligand with concentration 10 µM Diltiazem, incubation time 3h, incubation temperature 4 °C; conditions: male, Wistar, rat, rat whole brain preparation, probe [3H] Diltiazem, 2 nM; compound concentration 10 uM; target entry is the homologue from another species
# [17] = molecular target: Somatostatin receptor type 1 (Homo sapiens) (UniProt P30872); assay: Somatostatin sst1 Eurofins-Panlabs radioligand binding assay; set-up: ligand concentration 0.1 nM; conditions: Compound concentration 10.0 uM
# [18] = organism: Bos taurus; assay: (§1) Phosphodiesterase PDE6 Eurofins-Panlabs enzyme assay; set-up: substrate with concentration [3H] cGMP + cGMP, incubation time 20 min, incubation temperature 25 °C
# [19] = as §1; set-up: species or system Bos taurus; substrate with concentration [3H] cGMP + cGMP, incubation time 20 min, incubation temperature 25 °C
# [20] = molecular target: Muscarinic acetylcholine receptor M3 (Homo sapiens) (UniProt P20309); conditions: Compound concentration 10.0 uM
# [21] = molecular target: Gamma-aminobutyric acid type B receptor subunit 1 (Homo sapiens) (UniProt Q9UBS5); conditions: Rattus norvegicus; Compound concentration 10.0 uM
# [22] = molecular target: T1, 5-hydroxytryptamine receptor 2C (Homo sapiens) (UniProt P28335); conditions: Compound concentration 10.0 uM
# T1 sequence (whole entry): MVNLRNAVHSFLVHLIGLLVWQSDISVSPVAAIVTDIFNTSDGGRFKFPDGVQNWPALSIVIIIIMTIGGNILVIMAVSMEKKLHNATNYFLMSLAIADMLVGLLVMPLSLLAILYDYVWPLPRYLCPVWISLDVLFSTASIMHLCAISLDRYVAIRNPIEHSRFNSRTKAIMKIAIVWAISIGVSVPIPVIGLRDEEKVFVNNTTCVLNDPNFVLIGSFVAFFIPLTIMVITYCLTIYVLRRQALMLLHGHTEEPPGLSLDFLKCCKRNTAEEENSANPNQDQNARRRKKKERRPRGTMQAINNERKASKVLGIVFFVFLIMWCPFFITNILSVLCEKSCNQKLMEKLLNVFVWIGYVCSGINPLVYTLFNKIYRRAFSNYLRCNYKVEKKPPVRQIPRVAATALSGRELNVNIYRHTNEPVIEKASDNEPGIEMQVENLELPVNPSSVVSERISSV
# [23] = molecular target: Peroxisome proliferator-activated receptor alpha (Homo sapiens) (UniProt Q07869); assay: PPARalpha Eurofins-Panlabs radioligand binding assay; conditions: Compound concentration 10.0 uM
# [24] = molecular target: Caspase-7 (Homo sapiens) (UniProt P55210); assay: Peptidase, CASP7 (Caspase 7) Eurofins-Panlabs enzyme assay; conditions: Compound concentration 10.0 uM
# [25] = molecular target: Phosphodiesterase 3 (Homo sapiens, UniProt Q14432+Q13370); assay: Inhibition of Phosphodiesterase PDE3 at compound concentration of 10.0 uM in the Eurofins-Panlabs enzyme assay (Eurofins_assay_152000); format: protein assay; set-up: substrate with concentration 1.01 uM [3H] cAMP + cAMP, incubation time 20 min, incubation temperature 25 C
# [26] = organism: Homo sapiens; assay: Inhibition of Nicotinic Acetylcholine at compound concentration of 10.0 uM in the Eurofins-Panlabs radioligand binding assay (Eurofins_assay_258590); format: protein-complex assay; conditions: Compound concentration 10.0 uM
# [27] = molecular target: Sodium-dependent noradrenaline transporter (Homo sapiens, UniProt P23975)
# [28] = Compound concentration 100.0 uM
# Sodium-dependent noradrenaline transporter, sequence (P23975 whole entry): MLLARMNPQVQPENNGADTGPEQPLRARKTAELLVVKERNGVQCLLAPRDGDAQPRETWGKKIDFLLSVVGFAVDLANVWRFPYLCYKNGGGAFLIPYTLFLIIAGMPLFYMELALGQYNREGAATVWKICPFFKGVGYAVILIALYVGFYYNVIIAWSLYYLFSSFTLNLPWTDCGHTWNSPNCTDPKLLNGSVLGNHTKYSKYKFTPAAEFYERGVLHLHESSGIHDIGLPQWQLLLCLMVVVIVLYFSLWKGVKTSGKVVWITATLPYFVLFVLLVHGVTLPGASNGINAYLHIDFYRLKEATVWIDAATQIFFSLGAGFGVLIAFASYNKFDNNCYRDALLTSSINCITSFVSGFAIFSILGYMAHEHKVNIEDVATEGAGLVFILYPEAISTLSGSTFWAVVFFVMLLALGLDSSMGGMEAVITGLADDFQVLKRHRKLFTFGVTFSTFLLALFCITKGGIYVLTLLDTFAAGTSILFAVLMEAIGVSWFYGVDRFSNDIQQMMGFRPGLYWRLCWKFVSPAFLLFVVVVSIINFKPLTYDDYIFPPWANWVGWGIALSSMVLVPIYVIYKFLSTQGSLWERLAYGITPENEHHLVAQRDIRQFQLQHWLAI
# Synaptic vesicular amine transporter (Homo sapiens), sequence (Q05940 whole entry): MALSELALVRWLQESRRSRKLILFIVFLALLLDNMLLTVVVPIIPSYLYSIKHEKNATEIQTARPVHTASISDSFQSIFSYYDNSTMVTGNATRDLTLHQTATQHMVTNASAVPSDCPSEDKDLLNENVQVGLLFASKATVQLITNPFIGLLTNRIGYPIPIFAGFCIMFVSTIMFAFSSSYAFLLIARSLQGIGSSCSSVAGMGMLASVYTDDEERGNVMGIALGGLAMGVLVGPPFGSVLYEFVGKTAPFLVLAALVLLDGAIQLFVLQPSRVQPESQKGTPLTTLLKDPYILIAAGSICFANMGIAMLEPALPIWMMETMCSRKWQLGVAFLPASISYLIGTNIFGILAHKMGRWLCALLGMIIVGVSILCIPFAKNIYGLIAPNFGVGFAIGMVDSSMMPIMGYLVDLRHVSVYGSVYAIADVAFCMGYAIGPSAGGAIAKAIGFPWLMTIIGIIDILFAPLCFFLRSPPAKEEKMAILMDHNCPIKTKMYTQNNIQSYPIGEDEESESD
# 5-hydroxytryptamine receptor 6 (Homo sapiens), sequence (P50406 whole entry): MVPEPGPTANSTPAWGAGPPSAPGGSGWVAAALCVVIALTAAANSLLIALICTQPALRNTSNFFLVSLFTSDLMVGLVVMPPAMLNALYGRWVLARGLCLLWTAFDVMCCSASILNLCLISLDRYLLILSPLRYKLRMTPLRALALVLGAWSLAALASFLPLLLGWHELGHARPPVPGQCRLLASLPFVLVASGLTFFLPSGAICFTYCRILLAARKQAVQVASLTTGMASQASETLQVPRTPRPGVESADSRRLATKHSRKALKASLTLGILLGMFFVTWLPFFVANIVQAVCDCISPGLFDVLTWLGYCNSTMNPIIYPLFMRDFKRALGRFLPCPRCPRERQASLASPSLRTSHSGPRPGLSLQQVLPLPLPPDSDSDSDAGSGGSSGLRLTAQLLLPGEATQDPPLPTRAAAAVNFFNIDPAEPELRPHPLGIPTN
# Cannabinoid receptor 1 (Homo sapiens), sequence (P21554 whole entry): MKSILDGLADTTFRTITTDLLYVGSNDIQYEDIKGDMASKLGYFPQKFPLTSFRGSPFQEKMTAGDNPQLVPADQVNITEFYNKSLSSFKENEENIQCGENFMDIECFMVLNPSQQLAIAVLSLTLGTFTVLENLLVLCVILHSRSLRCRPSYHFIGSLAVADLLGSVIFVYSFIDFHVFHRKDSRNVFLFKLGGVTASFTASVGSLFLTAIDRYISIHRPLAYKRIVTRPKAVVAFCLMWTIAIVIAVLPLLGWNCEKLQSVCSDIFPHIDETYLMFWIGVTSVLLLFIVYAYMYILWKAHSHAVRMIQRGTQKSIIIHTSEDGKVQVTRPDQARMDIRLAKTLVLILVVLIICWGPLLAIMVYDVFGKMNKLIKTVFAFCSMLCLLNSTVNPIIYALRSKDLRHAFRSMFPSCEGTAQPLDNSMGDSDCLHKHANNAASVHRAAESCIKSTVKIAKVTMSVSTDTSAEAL
# Melanocortin receptor 4 (Homo sapiens), sequence (P32245 whole entry): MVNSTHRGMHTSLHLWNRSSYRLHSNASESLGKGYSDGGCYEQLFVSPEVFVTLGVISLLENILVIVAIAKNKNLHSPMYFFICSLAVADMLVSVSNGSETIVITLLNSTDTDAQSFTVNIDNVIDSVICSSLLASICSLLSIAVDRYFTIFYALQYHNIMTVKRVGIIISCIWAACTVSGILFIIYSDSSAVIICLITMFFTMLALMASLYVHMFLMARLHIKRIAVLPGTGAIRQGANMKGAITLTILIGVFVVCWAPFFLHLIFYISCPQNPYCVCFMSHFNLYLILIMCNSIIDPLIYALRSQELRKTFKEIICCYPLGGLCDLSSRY
# monoamine oxidase B (MAO-B), sequence (P27338 whole entry): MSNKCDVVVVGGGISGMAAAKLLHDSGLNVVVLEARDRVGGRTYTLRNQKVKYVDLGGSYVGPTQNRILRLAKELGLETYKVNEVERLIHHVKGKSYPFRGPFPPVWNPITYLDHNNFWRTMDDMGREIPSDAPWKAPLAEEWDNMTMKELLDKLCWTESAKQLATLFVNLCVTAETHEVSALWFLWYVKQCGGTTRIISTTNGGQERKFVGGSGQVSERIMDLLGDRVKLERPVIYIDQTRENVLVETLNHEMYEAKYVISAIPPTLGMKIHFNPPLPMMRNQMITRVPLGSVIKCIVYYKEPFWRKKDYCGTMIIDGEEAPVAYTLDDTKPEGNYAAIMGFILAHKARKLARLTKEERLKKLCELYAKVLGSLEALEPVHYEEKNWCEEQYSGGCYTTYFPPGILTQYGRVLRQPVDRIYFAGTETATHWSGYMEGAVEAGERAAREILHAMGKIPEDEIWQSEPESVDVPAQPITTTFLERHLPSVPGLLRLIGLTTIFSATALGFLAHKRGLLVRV
# Peroxisome proliferator-activated receptor alpha (Homo sapiens), sequence (Q07869 whole entry): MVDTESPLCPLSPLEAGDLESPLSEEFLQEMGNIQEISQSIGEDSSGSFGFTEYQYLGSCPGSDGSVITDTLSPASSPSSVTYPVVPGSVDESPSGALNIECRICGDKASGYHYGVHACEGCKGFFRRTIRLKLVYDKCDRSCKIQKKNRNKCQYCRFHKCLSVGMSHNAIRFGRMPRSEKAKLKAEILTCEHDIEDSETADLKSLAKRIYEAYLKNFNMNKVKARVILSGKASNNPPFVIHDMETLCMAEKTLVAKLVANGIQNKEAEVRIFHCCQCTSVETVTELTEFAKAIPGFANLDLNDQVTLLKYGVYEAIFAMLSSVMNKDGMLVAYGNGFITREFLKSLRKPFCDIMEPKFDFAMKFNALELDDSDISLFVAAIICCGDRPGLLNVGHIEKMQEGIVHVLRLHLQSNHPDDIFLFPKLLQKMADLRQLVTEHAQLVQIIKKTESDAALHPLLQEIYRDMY
# Gamma-aminobutyric acid type B receptor subunit 1 (Homo sapiens), sequence (Q9UBS5 whole entry): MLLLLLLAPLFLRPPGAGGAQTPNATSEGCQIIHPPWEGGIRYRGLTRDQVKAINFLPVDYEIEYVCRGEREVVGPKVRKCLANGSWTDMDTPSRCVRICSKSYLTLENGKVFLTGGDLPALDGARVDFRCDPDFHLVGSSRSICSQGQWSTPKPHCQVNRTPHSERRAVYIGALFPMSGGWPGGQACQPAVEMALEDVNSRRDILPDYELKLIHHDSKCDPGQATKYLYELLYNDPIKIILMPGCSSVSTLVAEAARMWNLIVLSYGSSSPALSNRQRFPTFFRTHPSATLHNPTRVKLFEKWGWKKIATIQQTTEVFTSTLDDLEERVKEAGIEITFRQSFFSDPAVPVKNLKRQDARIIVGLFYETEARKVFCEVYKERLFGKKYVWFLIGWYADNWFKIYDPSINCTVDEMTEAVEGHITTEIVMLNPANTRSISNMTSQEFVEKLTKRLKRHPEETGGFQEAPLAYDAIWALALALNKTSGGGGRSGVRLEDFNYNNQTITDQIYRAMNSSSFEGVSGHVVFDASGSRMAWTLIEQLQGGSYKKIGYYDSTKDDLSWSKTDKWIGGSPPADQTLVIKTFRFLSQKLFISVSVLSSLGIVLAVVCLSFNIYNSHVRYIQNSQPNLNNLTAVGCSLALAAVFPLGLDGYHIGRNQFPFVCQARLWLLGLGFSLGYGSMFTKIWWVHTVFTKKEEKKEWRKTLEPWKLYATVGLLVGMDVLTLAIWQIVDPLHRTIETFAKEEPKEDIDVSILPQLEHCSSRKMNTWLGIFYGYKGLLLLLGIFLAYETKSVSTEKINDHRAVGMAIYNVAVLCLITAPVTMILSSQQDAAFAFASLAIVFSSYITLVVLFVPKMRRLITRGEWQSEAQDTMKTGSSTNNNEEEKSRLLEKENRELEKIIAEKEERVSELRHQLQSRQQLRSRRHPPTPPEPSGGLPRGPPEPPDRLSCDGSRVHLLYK
# Somatostatin receptor type 1 (Homo sapiens), sequence (P30872 whole entry): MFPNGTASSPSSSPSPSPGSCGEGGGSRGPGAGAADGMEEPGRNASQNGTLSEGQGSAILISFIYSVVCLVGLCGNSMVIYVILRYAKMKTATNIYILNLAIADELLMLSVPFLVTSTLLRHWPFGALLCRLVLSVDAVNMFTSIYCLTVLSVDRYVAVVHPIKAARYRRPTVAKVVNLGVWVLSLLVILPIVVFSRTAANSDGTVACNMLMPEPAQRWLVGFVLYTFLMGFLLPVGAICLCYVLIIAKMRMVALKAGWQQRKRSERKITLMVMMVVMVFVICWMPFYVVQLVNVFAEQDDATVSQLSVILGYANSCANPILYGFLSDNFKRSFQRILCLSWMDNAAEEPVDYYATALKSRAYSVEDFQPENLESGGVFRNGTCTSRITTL
# Caspase-3 (Homo sapiens), sequence (P42574 29-175 limits assumed): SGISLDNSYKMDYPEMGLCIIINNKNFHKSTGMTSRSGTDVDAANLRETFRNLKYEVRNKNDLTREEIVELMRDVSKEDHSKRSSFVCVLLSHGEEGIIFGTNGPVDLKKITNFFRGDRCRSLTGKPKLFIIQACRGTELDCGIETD
# Caspase-3 (Homo sapiens), sequence (P42574 176-277 limits assumed): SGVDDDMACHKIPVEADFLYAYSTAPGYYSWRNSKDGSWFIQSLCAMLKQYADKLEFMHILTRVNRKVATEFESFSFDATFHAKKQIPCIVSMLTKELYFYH
smiles,measurement,setting,value
O=C(O)c1cc(-c2ccc(C3CCNCC3)cc2)c2ccc(-c3ccc(C(F)(F)F)cc3)cc2c1 [PPTN],inhibition,[1],-4%
same,inhibition,[2],-4%
same,inhibition,[3],29%
same,inhibition,[4],-6%
same,IC50,[5],38.2 µM
same,inhibition,[6],-7%
same,"inhibition at 60 min, 10 µM",[7],3% (not active)
same,inhibition,[8],3%
same,inhibition,[9],7%
same,inhibition,[10],28%
same,inhibition,[11],-1%
same,IC50,[12],9.27 µM
same,inhibition,[13],-5%
same,inhibition,[14],4%
same,inhibition,[15]; Compound concentration 0.01 uM,-8%
same,inhibition,[15]; Compound concentration 0.1 uM,8%
same,inhibition,[15]; Compound concentration 1.0 uM,41%
same,inhibition,[15]; Compound concentration 10.0 uM,59%
same,"inhibition at 3 h, 10 µM",[16],11% (not active)
same,inhibition,[17],34%
same,inhibition,[18]; Compound concentration 0.1 uM,2%
same,inhibition,[18]; Compound concentration 1.0 uM,4%
same,inhibition,[18]; Compound concentration 10.0 uM,35%
same,inhibition,[18]; [28],66%
same,IC50,[19],32.9 µM
same,inhibition,[20],11%
same,inhibition,[21],3%
same,inhibition,[22],20%
same,inhibition,[23],15%
same,inhibition,[24],-6%
same,IC50,[25],51.5 µM
same,inhibition,[25]; Compound concentration 0.1 uM,-7%
same,inhibition,[25]; Compound concentration 1.0 uM,4%
same,inhibition,[25]; Compound concentration 10.0 uM,28%
same,inhibition,[25]; [28],59%
same,inhibition,[26],0%
same,inhibition,[27]; Compound concentration 0.01 uM,6%
same,inhibition,[27]; Compound concentration 0.1 uM,-2%
same,inhibition,[27]; Compound concentration 1.0 uM,20%
same,inhibition,[27]; Compound concentration 10.0 uM,78%
